Results published in patent publication US9475784B2, “4,6-diarylaminothiazines as BACE1 inhibitors and their use for the reduction of beta-amyloid production” (BRISTOL-MYERS SQUIBB COMPANY, priority 2012, dated 2016).
Counter-ions that a name gives are not always drawn.

Each compound was assayed on Aβ42 production in H4 cells stably transfected with APP751 containing the Swedish mutation (H4 APP751 SWE clone 8.20) (assay: Cellular assay for inhibition of Aβ1-42 production (H4 APP751 SWE clone 8.20)). Settings: H4 APP751 SWE clone 8.20 cells, 19 h incubation; Table 5A, 6-alkyl and 6-substituted phenyl thiazine examples.
Format: cell-based
Protocol: Cellular Assays for Inhibition of Aβ1-40 and Aβ1-42 Production
H4 cells stably transfected with APP751 containing the Swedish mutation (H4 APP751 SWE clone 8.20, developed at BMS) were maintained in log phase through twice weekly passage at a 1:20 split. […] Following incubation for 19 h in 5% CO2 at 37° C., plates were briefly centrifuged (1000 rpm, 5 min). A 10 μl aliquot from each well was transferred to a second assay plate (Costar 3709) for Aβ40 measurements. Antibody cocktails were freshly prepared by dilution into 40 mM Tris-HCl (pH 7.4) with 0.2% BSA and added to assay plates. For Aβ42 measurements, antibodies specific for the Aβ42 neoepitope (565, developed at BMS; conjugated to the Wallac reagent (Perkin Elmer)) and the N-terminal sequence of Aβ peptide (26D6, developed at SIBIA; conjugated to APC (Perkin Elmer)) were mixed and 20 μl of the mixture was added to each well of the incubated cell plate yielding a final concentration of 0.8 ng/well 565 and 75 ng/well 26D6. For the Aβ40 measurements, antibodies specific for the Aβ40 neoepitope (TSD, developed at BMS; conjugated to the Wallac reagent (Perkin Elmer)) and 26D6 as described above were mixed and 20 μl of the mixture was added to the 10 μl aliquots which had been removed previously from the cell plate yielding a final concentration of 1.6 ng/well TSD and 17.5 ng/well 26D6. Assay plates containing antibodies were sealed with aluminum foil and incubated overnight at 4° C. Signal was determined using a Viewlux counter (Perkin Elmer) and IC50 values determined using curve fitting in CurveMaster (Excel Fit based).

Which IC50 does the source give for NC1=N[C@H](c2cccc(-c3cncnc3)c2)C[C@@H](C2CCCCC2)S1 (racemic) [Example 5, (±)-6-cyclohexyl-4-(3-(pyrimidin-5-yl)phenyl)-5,6-dihydro-4H-1,3-thiazin-2-amine] here?
The IC50 was 3800 nM.

N#Cc1ccc([C@@H]2C[C@@H](c3cccc(-c4cncnc4)c3)N=C(N)S2)cc1 (racemic) [Example 12, 4-((±)-2-amino-4-(3-(pyrimidin-5-yl)phenyl)-5,6-dihydro-4H-1,3-thiazin-6-yl)benzonitrile] was tested. Which IC50 did it give?
Its IC50 is 1800 nM.

Which IC50 does the source give for COc1ccc([C@@H]2C[C@@H](c3ccc(F)c(-c4cncnc4)c3)N=C(N)S2)cc1OC (racemic) [Example 7, (±)-6-(3,4-dimethoxyphenyl)-4-(4-fluoro-3-(pyrimidin-5-yl)phenyl)-5,6-dihydro-4H-1,3-thiazin-2-amine] here?
Its IC50 is 1700 nM.

Which IC50 does the source give for COc1ccc([C@@H]2C[C@@H](c3cc(-c4cncnc4)ccc3F)N=C(N)S2)cc1OC (racemic) [Example 8, (±)-6-(3,4-dimethoxyphenyl)-4-(2-fluoro-5-(pyrimidin-5-yl)phenyl)-5,6-dihydro-4H-1,3-thiazin-2-amine] here?
The IC50 was 1900 nM.

How did the IC50 turn out when COc1ccc([C@@H]2C[C@@H](c3cccc(-c4cncnc4)c3)N=C(N)S2)cc1OC (single isomer, unassigned) [Example 3A] was run?
The IC50 was 1100 nM.

COc1ccc([C@@H]2C[C@@H](c3cccc(-c4cncnc4)c3)N=C(N)S2)cc1OC (racemic) [Example 3, (±)-6-(3,4-dimethoxyphenyl)-4-(3-(pyrimidin-5-yl)phenyl)-5,6-dihydro-4H-1,3-thiazin-2-amine] was tested. Which IC50 did it give?
The IC50 was 1100 nM.

CC#Cc1cncc(-c2cc([C@@H]3C[C@@H](c4ccc(OC)c(OC)c4)SC(N)=N3)c(F)cc2F)c1 (racemic) [Example 32, (±)-4-(2,4-difluoro-5-(5-(prop-1-ynyl)pyridin-3-yl)phenyl)-6-(3,4-dimethoxyphenyl)-5,6-dihydro-4H-1,3-thiazin-2-amine] was tested. Which IC50 did it give?
The IC50 was 1000 nM.

With NC1=N[C@H](c2cccc(-c3cncnc3)c2)C[C@@H](c2ccc(F)cc2)S1 (racemic) [Example 16, (±)-6-(4-fluorophenyl)-4-(3-(pyrimidin-5-yl)phenyl)-5,6-dihydro-4H-1,3-thiazin-2-amine•TFA] as the compound, how does the IC50 read?
The IC50 was 2600 nM.

How did the IC50 turn out when COc1ccc([C@@H]2C[C@@H](c3ccc(F)c(-c4cncnc4)c3)N=C(N)S2)cc1OC (single isomer, unassigned) [Example 7A] was run?
The IC50 was 350 nM.

Which IC50 does the source give for COc1ccc([C@@H]2C[C@@H](c3cc(-c4cncnc4)ccc3F)N=C(N)S2)cc1OC (single isomer, unassigned) [Example 8A] here?
Its IC50 is 460 nM.

For COc1cccc([C@@H]2C[C@@H](c3cccc(-c4cncnc4)c3)N=C(N)S2)c1 (racemic) [Example 15, (±)-6-(3-methoxyphenyl)-4-(3-(pyrimidin-5-yl)phenyl)-5,6-dihydro-4H-1,3-thiazin-2-amine•TFA], which IC50 is on record?
The IC50 was 2800 nM.

Same assay, conditions: H4 APP751 SWE clone 8.20 cells, 19 h incubation; Table 5B, 6-heterocyclic thiazine examples

With COc1ncccc1-c1cc([C@]2(C)C[C@@H](c3c(C)noc3C)SC(N)=N2)c(F)cc1F [Example 56, (4S,6S)-4-(2,4-difluoro-5-(2-methoxypyridin-3-yl)phenyl)-6-(3,5-dimethylisoxazol-4-yl)-4-methyl-5,6-dihydro-4H-1,3-thiazin-2-amine] as the compound, how does the IC50 read?
The IC50 was 670 nM.

Cc1noc(C)c1[C@@H]1C[C@@](C)(c2cc(-c3cncnc3)c(F)cc2F)N=C(N)S1 [Example 39, (4S,6S)-4-(2,4-difluoro-5-(pyrimidin-5-yl)phenyl)-6-(3,5-dimethylisoxazol-4-yl)-4-methyl-5,6-dihydro-4H-1,3-thiazin-2-amine] was tested. Which IC50 did it give?
Its IC50 is 8 nM.

Which IC50 does the source give for COc1ccc(-c2cc([C@]3(C)C[C@@H](c4c(C)noc4C)SC(N)=N3)c(F)cc2F)cn1 [Example 54, (4S,6S)-4-(2,4-difluoro-5-(6-methoxypyridin-3-yl)phenyl)-6-(3,5-dimethylisoxazol-4-yl)-4-methyl-5,6-dihydro-4H-1,3-thiazin-2-amine] here?
The IC50 was 320 nM.

Cc1nocc1[C@@H]1C[C@@](C)(c2ccc(F)cc2F)N=C(N)S1 [Example 61, (4S,6S)-4-(2,4-difluorophenyl)-4-methyl-6-(3-methylisoxazol-4-yl)-5,6-dihydro-4H-1,3-thiazin-2-amine] was tested. Which IC50 did it give?
Its IC50 is 300 nM.

Which IC50 does the source give for NC1=N[C@H](c2cccc(-c3cncnc3)c2)C[C@@H](c2c[nH]cn2)S1 (racemic) [Example 21, (±)-6-(1H-imidazol-4-yl)-4-(3-(pyrimidin-5-yl)phenyl)-5,6-dihydro-4H-1,3-thiazin-2-amine•TFA] here?
The IC50 was over 30000 nM.

COc1ncc(-c2cc([C@]3(C)C[C@@H](c4c(C)noc4C)SC(N)=N3)c(F)cc2F)cc1Cl [Example 57, (4S,6S)-4-(5-(5-chloro-6-methoxypyridin-3-yl)-2,4-difluorophenyl)-6-(3,5-dimethylisoxazol-4-yl)-4-methyl-5,6-dihydro-4H-1,3-thiazin-2-amine] was tested. Which IC50 did it give?
Its IC50 is 380 nM.

Which IC50 does the source give for Cc1noc(C)c1[C@]1(C)C[C@@H](c2cc(-c3cncnc3)c(F)cc2F)N=C(N)S1 (racemic) [Example 34, (±)-4-(2,4-difluoro-5-(pyrimidin-5-yl)phenyl)-6-(3,5-dimethylisoxazol-4-yl)-6-methyl-5,6-dihydro-4H-1,3-thiazin-2-amine•TFA] here?
The IC50 was 2700 nM.

Which IC50 does the source give for Cc1noc(C)c1[C@@H]1C[C@@H](c2cccc(-c3cncnc3)c2)N=C(N)S1 (racemic) [Example 19, (±)-6-(3,5-dimethylisoxazol-4-yl)-4-(3-(pyrimidin-5-yl)phenyl)-5,6-dihydro-4H-1,3-thiazin-2-amine•TFA] here?
The IC50 was 230 nM.

Which IC50 does the source give for Cc1noc(C)c1[C@@H]1C[C@@](C)(c2cc(-c3cncc(O)c3)c(F)cc2F)N=C(N)S1 [Example 53, 5-(5-((4S,6S)-2-amino-6-(3,5-dimethylisoxazol-4-yl)-4-methyl-5,6-dihydro-4H-1,3-thiazin-4-yl)-2,4-difluorophenyl)pyridin-3-ol] here?
The IC50 was 300 nM.

Which IC50 does the source give for Cc1c([C@@H]2C[C@@H](c3cccc(-c4cncnc4)c3)N=C(N)S2)cnn1C (racemic) [Example 25, (±)-6-(1,5-dimethyl-1H-pyrazol-4-yl)-4-(3-(pyrimidin-5-yl)phenyl)-5,6-dihydro-4H-1,3-thiazin-2-amine•TFA] here?
The IC50 was 3400 nM.

With Cc1nn(C)cc1[C@@H]1C[C@@H](c2cccc(-c3cncnc3)c2)N=C(N)S1 (racemic) [Example 26, (±)-6-(1,3-dimethyl-1H-pyrazol-4-yl)-4-(3-(pyrimidin-5-yl)phenyl)-5,6-dihydro-4H-1,3-thiazin-2-amine•TFA] as the compound, how does the IC50 read?
Its IC50 is 2500 nM.

How did the IC50 turn out when Cc1noc(C)c1[C@@H]1C[C@@](C)(c2cc(F)cc(F)c2)N=C(N)S1 [Example 49, (4S,6S)-4-(3,5-difluorophenyl)-6-(3,5-dimethylisoxazol-4-yl)-4-methyl-5,6-dihydro-4H-1,3-thiazin-2-amine] was run?
The IC50 was 270 nM.

Which IC50 does the source give for C[C@@]1(c2ccc(F)cc2F)C[C@@H](c2cncnc2)SC(N)=N1 [Example 62, (4S,6S)-4-(2,4-difluorophenyl)-4-methyl-6-(pyrimidin-5-yl)-5,6-dihydro-4H-1,3-thiazin-2-amine] here?
Its IC50 is 310 nM.

For CC(=O)c1cc([C@]2(C)C[C@@H](c3c(C)noc3C)SC(N)=N2)c(F)cc1F [Example 47, 1-(5-((4S,6S)-2-amino-6-(3,5-dimethylisoxazol-4-yl)-4-methyl-5,6-dihydro-4H-1,3-thiazin-4-yl)-2,4-difluorophenyl)ethanone], which IC50 is on record?
The IC50 was 220 nM.

Which IC50 does the source give for Cc1noc(C)c1[C@@H]1C[C@@](C)(c2cc(-c3cccnc3C#N)c(F)cc2F)N=C(N)S1 [Example 55, 3-(5-((4S,6S)-2-amino-6-(3,5-dimethylisoxazol-4-yl)-4-methyl-5,6-dihydro-4H-1,3-thiazin-4-yl)-2,4-difluorophenyl)picolinonitrile] here?
The IC50 was 87 nM.

With Cc1ncc(-c2cc([C@]3(C)C[C@@H](c4c(C)noc4C)SC(N)=N3)c(F)cc2F)cn1 [Example 40, (4S,6S)-4-(2,4-difluoro-5-(2-methylpyrimidin-5-yl)phenyl)-6-(3,5-dimethylisoxazol-4-yl)-4-methyl-5,6-dihydro-4H-1,3-thiazin-2-amine] as the compound, how does the IC50 read?
The IC50 was 186 nM.

For Cn1nccc1[C@@H]1C[C@@](C)(c2ccc(F)cc2F)N=C(N)S1 [Example 60, (4S,6S)-4-(2,4-difluorophenyl)-4-methyl-6-(1-methyl-1H-pyrazol-5-yl)-5,6-dihydro-4H-1,3-thiazin-2-amine], which IC50 is on record?
Its IC50 is 330 nM.

For Cc1noc(C)c1[C@@H]1C[C@@](C)(c2ccc(F)cc2F)N=C(N)S1 [Example 45, (4S,6S)-4-(2,4-difluorophenyl)-6-(3,5-dimethylisoxazol-4-yl)-4-methyl-5,6-dihydro-4H-1,3-thiazin-2-amine], which IC50 is on record?
Its IC50 is 150 nM.

For Cc1noc(C)c1[C@@H]1C[C@@](C)(c2cc(F)c(F)c(F)c2)N=C(N)S1 [Example 50, (4S,6S)-6-(3,5-dimethylisoxazol-4-yl)-4-methyl-4-(3,4,5-trifluorophenyl)-5,6-dihydro-4H-1,3-thiazin-2-amine], which IC50 is on record?
Its IC50 is 840 nM.

For Cc1noc(C)c1[C@@H]1C[C@@H](c2cc(-c3cncnc3)c(F)cc2F)N=C(N)S1 (single isomer, unassigned) [Example 29A], which IC50 is on record?
The IC50 was 60 nM.
